Results from patent US12202832B2, “Heterocyclic compounds having a calcium-sensing receptor antagonistic activity” (TAKEDA PHARMACEUTICAL COMPANY LIMITED, priority 2017, dated 2025).

Key:
CSQ-Tg mice [1] = assay: Effect on survival rate of heart failure animal model; assay type: in vivo; conditions: oral QD 68 days, control: candesartan cilexetil mono-administration
Protocol: FIG. 1 is a graph showing a result of Test Example 5 “Effect of Compound of Example 1 on Survival Rate of Heart Failure Animal Model”, that is, survival rates of each of the mono-administration group of candesartan cilexetil, the co-administration group of candesartan cilexetil and the compound of Example 1 at 10 mg/kg bodyweight/day, and the co-administration group of candesartan cilexetil and the compound of Example 1 at 30 mg/kg bodyweight/day (log-rank test, the co-administration group of candesartan cilexetil and the compound of Example 1 at 10 mg/kg bodyweight/day (p<0.05), the co-administration group of candesartan cilexetil and the compound of Example 1 at 30 mg/kg bodyweight/day (p<0.01)).
In this Test Example, effect of Example 1 on survival rate was examined using heart failure animal models. The mice reported in Larry R. Jones et al., J. Clin. Invest. 101: 1385-1393, 1998 were obtained from the University of Pennsylvania and bred in-house, which were cardiac-specific transgenic mice of Calsequestrin (CSQ) (CSQ-Tg mice) as the heart failure animal models. In the study, female mice were used, and dosing was started from the age of 5 weeks. The animals were fed with chow (CE-2, CLEA Japan, Inc.) and tap water under the condition of room temperature of 20 to 26° C., humidity of 40 to 70%, and lighting time of 12 hours/day (7:00 to 19:00). […]

CYP3A = assay: CYP induction (CYP3A activity in cryopreserved hepatocytes, P450-Glo CYP3A4 assay); assay type: in vitro ADME; conditions: % of positive control; inducibility by 10 μmol/L rifampicin defined as 100%; hepatocytes treated 3 days
Protocol: Cryopreserved hepatocytes were thawed in a culture medium (In VitroGRO™ CP Medium, Celsis In Vitro Technologies, U.S.A.), and the resultant was added to BioCoat™ Matrigel®™ Matrix Thin-Layer 96 well (Becton, Dickinson and Company, U.S.A.) at a concentration of 40,000 cells/well. After culturing for 24 hours, the culture medium was removed, and replaced with an incubation medium (In VitroGRO™, HI Medium with Torpedo Antibiotic Mix, Celsis In Vitro Technologies, U.S.A.). Cells were cultured for an additional 3 days. The medium was removed on day 4, and the remained cells were treated in the induction medium containing a test compound for 3 days in the presence or absence of 10 μmol/L rifampicin. The induction medium was replaced every day. The test compound addition wells in the presence of 10 μmol/L rifampicin were used to evaluate the inhibitory effect of the test compound on the inducibility of the CYP3A activity by rifampicin. The CYP3A activity was evaluated by measuring luciferin generating amount after the addition of 2 μmol/L luciferin-IPA using IPA P450-Glo™ CYP3A4 assay systems (Promega Corporation, U.S.A.). All cultures were carried out under a humidified environment at 37° C., 5% CO2. The inducibility by rifampicin was defines as 100%, and the inducibility of the test compound (% of positive control) was calculated from the following equation: [(luciferin fluorescence intensity in the absence of rifampicin and the presence of test compound)−(luciferin fluorescence intensity in the absence of rifampicin and test compound)/(luciferin fluorescence intensity in the presence of rifampicin and the absence of test compound)−(Luciferin fluorescence intensity in the absence of rifampicin and test compound)]×100.

CSQ-Tg mice [2] = assay: Heart weight lowering effect in heart failure animal model; assay type: in vivo; conditions: mean ± standard deviation; for Heart weight / Right ventricle weight: ** p < 0.025 Williams' test
Protocol: In this Test Example, the heart weight lowering effect of the compound of Example 1 (referred to herein as “Example 1”) was evaluated using CSQ-Tg mice as animal model for heart failure.
The Example 1 was suspended in 0.5% methylcellulose aqueous solution (hereinafter, in Test Examples, sometimes referred to as “vehicle”) (10 mL/kg). The obtained suspension was orally administered to 5-week old female CSQ-Tg mice developing heart failure at a dose of 30 mg/kg bodyweight/day (n=7) or 90 mg/kg bodyweight/day (n=9) once daily (QD) for 21 days. For a negative control (vehicle administration group), 0.5% methylcellulose aqueous solution (n=7) was administered. Then, weights of the hearts were measured. The measurement of the weights was carried out by fractionating each of the hearts into four: left ventricle, right ventricle, left atrium, and right atrium. The sum of the weights of the four fractions was defined as the heart weight.

[3] = 30 mg/kg bodyweight/day oral QD 21 days
[4] = 90 mg/kg bodyweight/day oral QD 21 days

CCc1ccc([C@@](CC)(NC(=O)c2c(C)nn3c2N[C@@H](c2ccccc2)CC3(C)C)C(=O)N[C@@H](C)C(N)=O)cc1 [Example 1, (5R)-N-((2R)-1-(((2S)-1-Amino-1-oxopropan-2-yl)amino)-2-(4-ethylphenyl)-1-oxobutan-2-yl)-2,7,7-trimethyl-5-phenyl-4,5,6,7-tetrahydropyrazolo[1,5-a]pyrimidine-3-carboxamide] was tested, and the “Survival rate, log-rank test p” value (CSQ-Tg mice [1]; 10 mg/kg bodyweight/day co-administered with candesartan cilexetil (1 mg/kg bodyweight/day)) was less than 0.05, the “Survival rate, log-rank test p” value (CSQ-Tg mice [1]; 30 mg/kg bodyweight/day co-administered with candesartan cilexetil (1 mg/kg bodyweight/day)) was less than 0.01 and the Inducibility (CYP3A) was 15.3%. For the same molecule, the Left atrium weight (CSQ-Tg mice [2]; [3]) was 8.1 ± 3.8 mg, the Left ventricle weight (CSQ-Tg mice [2]; [3]) was 147.4 ± 12.0 mg and the Right atrium weight (CSQ-Tg mice [2]; [3]) was 5.5 ± 2.6 mg. The Heart weight (CSQ-Tg mice [2]; [3]) was 202.8 ± 14.1** mg, the Right ventricle weight (CSQ-Tg mice [2]; [3]) was 41.8 ± 6.0** mg and the Left atrium weight (CSQ-Tg mice [2]; [4]) was 9.1 ± 5.1 mg. For the same molecule, the Left ventricle weight (CSQ-Tg mice [2]; [4]) was 147.0 ± 8.6 mg, the Right atrium weight (CSQ-Tg mice [2]; [4]) was 5.1 ± 2.2 mg and the Heart weight (CSQ-Tg mice [2]; [4]) was 202.5 ± 19.1** mg. For the same molecule, the Right ventricle weight (CSQ-Tg mice [2]; [4]) was 41.3 ± 7.6** mg.
